Laboratory results published in article PMC8214221, “Sequence determinants in the cathelicidin LL-37 that promote inflammation via presentation of RNA to scavenger receptors” (The Journal of Biological Chemistry, 2021).
Residues, ends and D or L forms follow the SMILES beside them.

Each molecule was assayed on normal human epidermal keratinocytes (NHEKs) (assay: LDH release cytotoxicity assay in keratinocytes). Details: minimal concentration giving 50% LDH release by NHEKs.
Assay type: cell-based
Excerpt: Since LL-34 was the minimal truncation mutant of LL-37 that retained both antimicrobial and immune modulatory activity, we prepared a series of synthetic peptides with sequential substitutions of alanine at each amino acid position of the LL-34 parent peptide (Table 1). We compared the minimum inhibitory concentration (MIC) for the LL-34 parent peptide and the alanine mutants (LL-34 peptides—L1A and R34A) against methicillin-resistant Staphylococcus aureus strain USA300 (Fig. 1A). LL-34 peptides were incubated at concentrations of 0 to 100 μM with bacteria. The minimal concentration at which no growth was observed was noted after 18 h of incubation. […] Because of these changes in the MIC against S. aureus between the mutants, we investigated the effective toxicity profile of the peptides in normal human epidermal keratinocytes (NHEKs) by lactate dehydrogenase (LDH) release assay (Table 1). […] Most other peptides were cytotoxic at a minimal concentration of 10 μM, whereas LL-34—K15A was toxic at a concentration of 2.5 μM.
LDH cytotoxicity assay was performed according to manufacturer's instructions (Thermo Fisher Scientific). Culture supernatants from keratinocytes were used fresh for LDH assay after experimental treatments.

In order of rising “Minimal cytotoxic concentration in NHEK (LD50)” value:
1. CC[C@H](C)[C@H](NC(=O)[C@H](CCCCN)NC(=O)[C@H](CCC(=O)O)NC(=O)[C@H](CCCCN)NC(=O)[C@H](CO)NC(=O)[C@H](CCCCN)NC(=O)[C@H](CCCNC(=N)N)NC(=O)[C@H](Cc1ccccc1)NC(=O)[C@H](Cc1ccccc1)NC(=O)[C@H](C)NC(=O)CNC(=O)[C@H](CC(C)C)NC(=O)[C@@H](N)CC(C)C)C(=O)NCC(=O)N[C@@H](CCCCN)C(=O)N[C@@H](CCC(=O)O)C(=O)N[C@@H](Cc1ccccc1)C(=O)N[C@@H](CCCCN)C(=O)N[C@@H](CCCNC(=N)N)C(=O)N[C@H](C(=O)N[C@H](C(=O)N[C@@H](CCC(N)=O)C(=O)N[C@@H](CCCNC(=N)N)C(=O)N[C@H](C(=O)N[C@@H](CCCCN)C(=O)N[C@@H](CC(=O)O)C(=O)N[C@@H](Cc1ccccc1)C(=O)N[C@@H](CC(C)C)C(=O)N[C@@H](CCCNC(=N)N)C(=O)N[C@@H](CC(N)=O)C(=O)N[C@@H](CC(C)C)C(=O)N[C@H](C(=O)N1CCC[C@H]1C(=O)N[C@@H](CCCNC(=N)N)C(=O)O)C(C)C)[C@@H](C)CC)C(C)C)[C@@H](C)CC [LL-34—D4A] (H-LLGAFFRKSKEKIGKEFKRIVQRIKDFLRNLVPR-OH; N-terminus and C-terminus assumed)  5 µM
2. CC[C@H](C)[C@H](NC(=O)[C@H](CCCCN)NC(=O)[C@H](C)NC(=O)[C@H](CCCCN)NC(=O)[C@H](CO)NC(=O)[C@H](CCCCN)NC(=O)[C@H](CCCNC(=N)N)NC(=O)[C@H](Cc1ccccc1)NC(=O)[C@H](Cc1ccccc1)NC(=O)[C@H](CC(=O)O)NC(=O)CNC(=O)[C@H](CC(C)C)NC(=O)[C@@H](N)CC(C)C)C(=O)NCC(=O)N[C@@H](CCCCN)C(=O)N[C@@H](CCC(=O)O)C(=O)N[C@@H](Cc1ccccc1)C(=O)N[C@@H](CCCCN)C(=O)N[C@@H](CCCNC(=N)N)C(=O)N[C@H](C(=O)N[C@H](C(=O)N[C@@H](CCC(N)=O)C(=O)N[C@@H](CCCNC(=N)N)C(=O)N[C@H](C(=O)N[C@@H](CCCCN)C(=O)N[C@@H](CC(=O)O)C(=O)N[C@@H](Cc1ccccc1)C(=O)N[C@@H](CC(C)C)C(=O)N[C@@H](CCCNC(=N)N)C(=O)N[C@@H](CC(N)=O)C(=O)N[C@@H](CC(C)C)C(=O)N[C@H](C(=O)N1CCC[C@H]1C(=O)N[C@@H](CCCNC(=N)N)C(=O)O)C(C)C)[C@@H](C)CC)C(C)C)[C@@H](C)CC [LL-34—E11A] (H-LLGDFFRKSKAKIGKEFKRIVQRIKDFLRNLVPR-OH; N-terminus and C-terminus assumed)  5 µM
3. CC[C@H](C)[C@H](NC(=O)[C@H](CCCCN)NC(=O)[C@H](CCC(=O)O)NC(=O)[C@H](CCCCN)NC(=O)[C@H](CO)NC(=O)[C@H](CCCCN)NC(=O)[C@H](CCCNC(=N)N)NC(=O)[C@H](Cc1ccccc1)NC(=O)[C@H](Cc1ccccc1)NC(=O)[C@H](CC(=O)O)NC(=O)CNC(=O)[C@H](CC(C)C)NC(=O)[C@@H](N)CC(C)C)C(=O)NCC(=O)N[C@@H](CCCCN)C(=O)N[C@@H](C)C(=O)N[C@@H](Cc1ccccc1)C(=O)N[C@@H](CCCCN)C(=O)N[C@@H](CCCNC(=N)N)C(=O)N[C@H](C(=O)N[C@H](C(=O)N[C@@H](CCC(N)=O)C(=O)N[C@@H](CCCNC(=N)N)C(=O)N[C@H](C(=O)N[C@@H](CCCCN)C(=O)N[C@@H](CC(=O)O)C(=O)N[C@@H](Cc1ccccc1)C(=O)N[C@@H](CC(C)C)C(=O)N[C@@H](CCCNC(=N)N)C(=O)N[C@@H](CC(N)=O)C(=O)N[C@@H](CC(C)C)C(=O)N[C@H](C(=O)N1CCC[C@H]1C(=O)N[C@@H](CCCNC(=N)N)C(=O)O)C(C)C)[C@@H](C)CC)C(C)C)[C@@H](C)CC [LL-34—E16A] (H-LLGDFFRKSKEKIGKAFKRIVQRIKDFLRNLVPR-OH; N-terminus and C-terminus assumed)  5 µM
4. CC[C@H](C)[C@H](NC(=O)[C@H](CCCCN)NC(=O)[C@H](CCC(=O)O)NC(=O)[C@H](CCCCN)NC(=O)[C@H](CO)NC(=O)[C@H](CCCCN)NC(=O)[C@H](CCCNC(=N)N)NC(=O)[C@H](Cc1ccccc1)NC(=O)[C@H](Cc1ccccc1)NC(=O)[C@H](CC(=O)O)NC(=O)CNC(=O)[C@H](CC(C)C)NC(=O)[C@@H](N)CC(C)C)C(=O)N[C@@H](C)C(=O)N[C@@H](CCCCN)C(=O)N[C@@H](CCC(=O)O)C(=O)N[C@@H](Cc1ccccc1)C(=O)N[C@@H](CCCCN)C(=O)N[C@@H](CCCNC(=N)N)C(=O)N[C@H](C(=O)N[C@H](C(=O)N[C@@H](CCC(N)=O)C(=O)N[C@@H](CCCNC(=N)N)C(=O)N[C@H](C(=O)N[C@@H](CCCCN)C(=O)N[C@@H](CC(=O)O)C(=O)N[C@@H](Cc1ccccc1)C(=O)N[C@@H](CC(C)C)C(=O)N[C@@H](CCCNC(=N)N)C(=O)N[C@@H](CC(N)=O)C(=O)N[C@@H](CC(C)C)C(=O)N[C@H](C(=O)N1CCC[C@H]1C(=O)N[C@@H](CCCNC(=N)N)C(=O)O)C(C)C)[C@@H](C)CC)C(C)C)[C@@H](C)CC [LL-34—G14A] (H-LLGDFFRKSKEKIAKEFKRIVQRIKDFLRNLVPR-OH; N-terminus and C-terminus assumed)  5 µM
5. CC[C@H](C)[C@H](NC(=O)[C@H](CCCCN)NC(=O)[C@H](CCC(=O)O)NC(=O)[C@H](CCCCN)NC(=O)[C@H](CO)NC(=O)[C@H](C)NC(=O)[C@H](CCCNC(=N)N)NC(=O)[C@H](Cc1ccccc1)NC(=O)[C@H](Cc1ccccc1)NC(=O)[C@H](CC(=O)O)NC(=O)CNC(=O)[C@H](CC(C)C)NC(=O)[C@@H](N)CC(C)C)C(=O)NCC(=O)N[C@@H](CCCCN)C(=O)N[C@@H](CCC(=O)O)C(=O)N[C@@H](Cc1ccccc1)C(=O)N[C@@H](CCCCN)C(=O)N[C@@H](CCCNC(=N)N)C(=O)N[C@H](C(=O)N[C@H](C(=O)N[C@@H](CCC(N)=O)C(=O)N[C@@H](CCCNC(=N)N)C(=O)N[C@H](C(=O)N[C@@H](CCCCN)C(=O)N[C@@H](CC(=O)O)C(=O)N[C@@H](Cc1ccccc1)C(=O)N[C@@H](CC(C)C)C(=O)N[C@@H](CCCNC(=N)N)C(=O)N[C@@H](CC(N)=O)C(=O)N[C@@H](CC(C)C)C(=O)N[C@H](C(=O)N1CCC[C@H]1C(=O)N[C@@H](CCCNC(=N)N)C(=O)O)C(C)C)[C@@H](C)CC)C(C)C)[C@@H](C)CC [LL-34—K8A] (H-LLGDFFRASKEKIGKEFKRIVQRIKDFLRNLVPR-OH; N-terminus and C-terminus assumed)  5 µM
6. CC[C@H](C)[C@H](NC(=O)[C@H](CCCCN)NC(=O)[C@H](CCC(=O)O)NC(=O)[C@H](CCCCN)NC(=O)[C@H](CO)NC(=O)[C@H](CCCCN)NC(=O)[C@H](CCCNC(=N)N)NC(=O)[C@H](Cc1ccccc1)NC(=O)[C@H](Cc1ccccc1)NC(=O)[C@H](CC(=O)O)NC(=O)CNC(=O)[C@H](CC(C)C)NC(=O)[C@@H](N)CC(C)C)C(=O)NCC(=O)N[C@@H](CCCCN)C(=O)N[C@@H](CCC(=O)O)C(=O)N[C@@H](Cc1ccccc1)C(=O)N[C@@H](CCCCN)C(=O)N[C@@H](CCCNC(=N)N)C(=O)N[C@H](C(=O)N[C@H](C(=O)N[C@@H](CCC(N)=O)C(=O)N[C@@H](CCCNC(=N)N)C(=O)N[C@H](C(=O)N[C@@H](CCCCN)C(=O)N[C@@H](C)C(=O)N[C@@H](Cc1ccccc1)C(=O)N[C@@H](CC(C)C)C(=O)N[C@@H](CCCNC(=N)N)C(=O)N[C@@H](CC(N)=O)C(=O)N[C@@H](CC(C)C)C(=O)N[C@H](C(=O)N1CCC[C@H]1C(=O)N[C@@H](CCCNC(=N)N)C(=O)O)C(C)C)[C@@H](C)CC)C(C)C)[C@@H](C)CC [LL-34—D26A] (H-LLGDFFRKSKEKIGKEFKRIVQRIKAFLRNLVPR-OH; N-terminus and C-terminus assumed)  10 µM
7. CC[C@H](C)[C@H](NC(=O)[C@H](CCCCN)NC(=O)[C@H](CCC(=O)O)NC(=O)[C@H](CCCCN)NC(=O)[C@H](CO)NC(=O)[C@H](CCCCN)NC(=O)[C@H](CCCNC(=N)N)NC(=O)[C@H](Cc1ccccc1)NC(=O)[C@H](Cc1ccccc1)NC(=O)[C@H](CC(=O)O)NC(=O)[C@H](C)NC(=O)[C@H](CC(C)C)NC(=O)[C@@H](N)CC(C)C)C(=O)NCC(=O)N[C@@H](CCCCN)C(=O)N[C@@H](CCC(=O)O)C(=O)N[C@@H](Cc1ccccc1)C(=O)N[C@@H](CCCCN)C(=O)N[C@@H](CCCNC(=N)N)C(=O)N[C@H](C(=O)N[C@H](C(=O)N[C@@H](CCC(N)=O)C(=O)N[C@@H](CCCNC(=N)N)C(=O)N[C@H](C(=O)N[C@@H](CCCCN)C(=O)N[C@@H](CC(=O)O)C(=O)N[C@@H](Cc1ccccc1)C(=O)N[C@@H](CC(C)C)C(=O)N[C@@H](CCCNC(=N)N)C(=O)N[C@@H](CC(N)=O)C(=O)N[C@@H](CC(C)C)C(=O)N[C@H](C(=O)N1CCC[C@H]1C(=O)N[C@@H](CCCNC(=N)N)C(=O)O)C(C)C)[C@@H](C)CC)C(C)C)[C@@H](C)CC [LL-34—G3A] (H-LLADFFRKSKEKIGKEFKRIVQRIKDFLRNLVPR-OH; N-terminus and C-terminus assumed)  20 µM
